Experimental data taken from PubChem BioAssay AID2060900 (Molecular Pharmacology Branch, DTP, NCI, 2025).

Tested on: 521955-158-R2-J5-PDC complex spheroids, viability
Assay: Anticancer human tumor 521955-158-R2-J5-PDC patient-derived pancreatic carcinoma cell line growth inhibition [RAS]
Conditions: for IC50: curve of first compound; for viability, T/C: stronger effect = lower value
Method in brief: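 Tumour cells grown as complex spheroids with HUVEC endothelial cells and mesenchymal stem cells, treated with RAS pathway inhibitor combinations. Each agent spans half-log steps from near clinical Cmax, or 10 microM where Cmax is unknown.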
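Note: compound exposure lasted seven days before the viability read.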
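Throughout, for viability, T/C: spheroids also contain HUVEC endothelial cells and mesenchymal stem cells as stroma.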

CC(=O)OC12COC1CC(O)C1(C)C(=O)C(O)C3=C(C)C(OC(=O)C(O)C(NC(=O)OC(C)(C)C)c4ccccc4)CC(O)(C(OC(=O)c4ccccc4)C21)C3(C)C (centres undefined) + C#Cc1c(F)ccc2cc(O)cc(-c3ncc4c(N5CC6CCC(C5)N6)nc(OCC56CCCN5CC(F)C6)nc4c3F)c12
IC50 (second compound 0.0316 µM): < 31.6 nM
IC50 (second compound 0.1 µM): < 31.6 nM
IC50 (second compound 0.316 µM): < 31.6 nM
IC50 (second compound 1 µM): < 31.6 nM
IC50 (second compound 3.16 µM): < 31.6 nM
IC50 (second compound 10 µM): < 31.6 nM
viability, T/C (second compound 0.0316 µM, first compound 0.0316 µM): 32.5%
viability, T/C (second compound 0.0316 µM, first compound 0.1 µM): 35.9%
viability, T/C (second compound 0.0316 µM, first compound 0.316 µM): 32.6%
viability, T/C (second compound 0.0316 µM, first compound 1 µM): 30.2%
viability, T/C (second compound 0.0316 µM, first compound 3.16 µM): 37.5%
viability, T/C (second compound 0.0316 µM, first compound 10 µM): 47.2%
viability, T/C (second compound 0.1 µM, first compound 0.0316 µM): 33.3%
viability, T/C (second compound 0.1 µM, first compound 0.1 µM): 39.6%
viability, T/C (second compound 0.1 µM, first compound 0.316 µM): 35.2%
viability, T/C (second compound 0.1 µM, first compound 1 µM): 37.7%
viability, T/C (second compound 0.1 µM, first compound 3.16 µM): 35.6%
viability, T/C (second compound 0.1 µM, first compound 10 µM): 40.4%
viability, T/C (second compound 0.316 µM, first compound 0.0316 µM): 33.2%
viability, T/C (second compound 0.316 µM, first compound 0.1 µM): 31.7%
viability, T/C (second compound 0.316 µM, first compound 0.316 µM): 28.6%
viability, T/C (second compound 0.316 µM, first compound 1 µM): 30.9%
viability, T/C (second compound 0.316 µM, first compound 3.16 µM): 37%
viability, T/C (second compound 0.316 µM, first compound 10 µM): 38.7%
viability, T/C (second compound 1 µM, first compound 0.0316 µM): 21.7%
viability, T/C (second compound 1 µM, first compound 0.1 µM): 34.3%
viability, T/C (second compound 1 µM, first compound 0.316 µM): 32.6%
viability, T/C (second compound 1 µM, first compound 1 µM): 29.4%
viability, T/C (second compound 1 µM, first compound 3.16 µM): 51.5%
viability, T/C (second compound 1 µM, first compound 10 µM): 40.5%
viability, T/C (second compound 3.16 µM, first compound 0.0316 µM): 27.4%
viability, T/C (second compound 3.16 µM, first compound 0.1 µM): 33.3%
viability, T/C (second compound 3.16 µM, first compound 0.316 µM): 30.8%
viability, T/C (second compound 3.16 µM, first compound 1 µM): 33.4%
viability, T/C (second compound 3.16 µM, first compound 3.16 µM): 31.1%
viability, T/C (second compound 3.16 µM, first compound 10 µM): 33%
viability, T/C (second compound 10 µM, first compound 0.0316 µM): 24.8%
viability, T/C (second compound 10 µM, first compound 0.1 µM): 34.1%
viability, T/C (second compound 10 µM, first compound 0.316 µM): 28.3%
viability, T/C (second compound 10 µM, first compound 1 µM): 28.7%
viability, T/C (second compound 10 µM, first compound 3.16 µM): 32.1%
viability, T/C (second compound 10 µM, first compound 10 µM): 25.1%

CC1(C)CCC(Nc2ncc(C(F)(F)F)c(-c3c[nH]c4c(P(C)(C)=O)c(C#N)ccc34)n2)CN1 (centres undefined) + C#Cc1c(F)ccc2cc(O)cc(-c3ncc4c(N5CC6CCC(C5)N6)nc(OCC56CCCN5CC(F)C6)nc4c3F)c12
IC50 (second compound 0.0316 µM): < 0.949 nM
IC50 (second compound 0.1 µM): < 0.949 nM
IC50 (second compound 0.316 µM): < 0.949 nM
IC50 (second compound 1 µM): < 0.949 nM
IC50 (second compound 3.16 µM): < 0.949 nM
IC50 (second compound 10 µM): < 0.949 nM
viability, T/C (second compound 0.0316 µM, first compound 0.000949 µM): 43.7%
viability, T/C (second compound 0.0316 µM, first compound 0.003 µM): 38.4%
viability, T/C (second compound 0.0316 µM, first compound 0.00949 µM): 37.1%
viability, T/C (second compound 0.0316 µM, first compound 0.03 µM): 31.4%
viability, T/C (second compound 0.0316 µM, first compound 0.0949 µM): 43.7%
viability, T/C (second compound 0.0316 µM, first compound 0.3 µM): 41.9%
viability, T/C (second compound 0.1 µM, first compound 0.000949 µM): 43.5%
viability, T/C (second compound 0.1 µM, first compound 0.003 µM): 40.8%
viability, T/C (second compound 0.1 µM, first compound 0.00949 µM): 33%
viability, T/C (second compound 0.1 µM, first compound 0.03 µM): 29.6%
viability, T/C (second compound 0.1 µM, first compound 0.0949 µM): 39.7%
viability, T/C (second compound 0.1 µM, first compound 0.3 µM): 33.8%
viability, T/C (second compound 0.316 µM, first compound 0.000949 µM): 40.4%
viability, T/C (second compound 0.316 µM, first compound 0.003 µM): 37.5%
viability, T/C (second compound 0.316 µM, first compound 0.00949 µM): 29.9%
viability, T/C (second compound 0.316 µM, first compound 0.03 µM): 29.4%
viability, T/C (second compound 0.316 µM, first compound 0.0949 µM): 30.3%
viability, T/C (second compound 0.316 µM, first compound 0.3 µM): 29.2%
viability, T/C (second compound 1 µM, first compound 0.000949 µM): 38.5%
viability, T/C (second compound 1 µM, first compound 0.003 µM): 31.8%
viability, T/C (second compound 1 µM, first compound 0.00949 µM): 25.5%
viability, T/C (second compound 1 µM, first compound 0.03 µM): 26.8%
viability, T/C (second compound 1 µM, first compound 0.0949 µM): 24.3%
viability, T/C (second compound 1 µM, first compound 0.3 µM): 25%
viability, T/C (second compound 3.16 µM, first compound 0.000949 µM): 33.5%
viability, T/C (second compound 3.16 µM, first compound 0.003 µM): 27.8%
viability, T/C (second compound 3.16 µM, first compound 0.00949 µM): 25.1%
viability, T/C (second compound 3.16 µM, first compound 0.03 µM): 25%
viability, T/C (second compound 3.16 µM, first compound 0.0949 µM): 21.1%
viability, T/C (second compound 3.16 µM, first compound 0.3 µM): 24.8%
viability, T/C (second compound 10 µM, first compound 0.000949 µM): 29.7%
viability, T/C (second compound 10 µM, first compound 0.003 µM): 25.9%
viability, T/C (second compound 10 µM, first compound 0.00949 µM): 20.2%
viability, T/C (second compound 10 µM, first compound 0.03 µM): 21.2%
viability, T/C (second compound 10 µM, first compound 0.0949 µM): 21.7%
viability, T/C (second compound 10 µM, first compound 0.3 µM): 20.1%
